Assay results as given in paper PMC11891828, “Olfactory Receptor Responses to Pure Odorants in Drosophila melanogaster” (The European Journal of Neuroscience, 2025).

Key:
Experiment in all cases: in vivo GCaMP6m calcium imaging of antennal neurons, GC-purified odorant
[1] = target: T1, Or10a (Drosophila melanogaster, UniProt Q9VYZ1); conditions: activation; headspace of mineral-oil dilutions 10^-6, 10^-4, 10^-2
T1 construct: native receptor in situ in antennal olfactory sensory neurons of living flies; Or10a-Gal4 drives UAS-GCaMP6m reporter; with Odorant receptor coreceptor
T1 sequence (Q9VYZ1 1-406): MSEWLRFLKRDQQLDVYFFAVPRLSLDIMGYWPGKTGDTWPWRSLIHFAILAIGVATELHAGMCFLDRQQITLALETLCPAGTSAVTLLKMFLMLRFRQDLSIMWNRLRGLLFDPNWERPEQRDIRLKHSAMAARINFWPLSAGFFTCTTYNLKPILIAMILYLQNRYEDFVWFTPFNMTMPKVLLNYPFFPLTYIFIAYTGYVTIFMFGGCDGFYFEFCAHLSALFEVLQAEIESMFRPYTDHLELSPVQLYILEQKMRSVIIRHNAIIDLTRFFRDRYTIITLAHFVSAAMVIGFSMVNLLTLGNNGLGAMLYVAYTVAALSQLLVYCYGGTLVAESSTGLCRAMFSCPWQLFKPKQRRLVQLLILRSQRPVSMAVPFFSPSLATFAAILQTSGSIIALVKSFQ
T1 sequence (Q9VNB5 1-486 partner): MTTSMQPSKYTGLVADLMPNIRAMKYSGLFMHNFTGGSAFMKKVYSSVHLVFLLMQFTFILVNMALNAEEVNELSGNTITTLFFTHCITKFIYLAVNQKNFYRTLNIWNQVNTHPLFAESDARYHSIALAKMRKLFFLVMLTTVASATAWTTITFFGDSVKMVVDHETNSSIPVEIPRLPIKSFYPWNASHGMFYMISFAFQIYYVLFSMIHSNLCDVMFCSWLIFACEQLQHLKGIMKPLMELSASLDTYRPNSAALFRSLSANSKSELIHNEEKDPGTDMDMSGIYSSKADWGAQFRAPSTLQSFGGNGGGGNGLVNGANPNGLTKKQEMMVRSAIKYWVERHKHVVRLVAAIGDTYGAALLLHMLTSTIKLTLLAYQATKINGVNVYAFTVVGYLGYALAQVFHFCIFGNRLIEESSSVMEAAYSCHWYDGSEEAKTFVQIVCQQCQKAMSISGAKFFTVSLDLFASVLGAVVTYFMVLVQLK

[2] = target: T2, Or47a (Drosophila melanogaster, UniProt P81921); conditions: activation; headspace of mineral-oil dilutions
T2 construct: native receptor in situ in antennal olfactory sensory neurons of living flies; Or47a-Gal4 drives UAS-GCaMP6m reporter; with Odorant receptor coreceptor
T2 sequence (P81921 1-385): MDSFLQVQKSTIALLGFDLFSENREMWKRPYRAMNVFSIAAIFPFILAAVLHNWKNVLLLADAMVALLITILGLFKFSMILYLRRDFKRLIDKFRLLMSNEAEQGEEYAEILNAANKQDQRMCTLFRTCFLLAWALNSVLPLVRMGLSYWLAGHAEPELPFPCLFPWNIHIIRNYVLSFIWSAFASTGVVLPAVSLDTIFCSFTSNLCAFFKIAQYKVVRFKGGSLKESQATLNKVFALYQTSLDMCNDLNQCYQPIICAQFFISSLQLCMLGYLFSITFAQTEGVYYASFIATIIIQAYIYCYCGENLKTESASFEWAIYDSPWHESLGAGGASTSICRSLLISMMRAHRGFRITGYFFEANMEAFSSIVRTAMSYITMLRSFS
T2 sequence (Q9VNB5 1-486 partner): T1 sequence (Q9VNB5 1-486 partner)

[3] = target: T3, Or56a (Drosophila melanogaster, UniProt Q9V8Y7); conditions: activation; dose series extended to 10^-12 dilution
T3 construct: native receptor in situ in antennal olfactory sensory neurons of living flies; Or56a-Gal4 drives UAS-GCaMP6m reporter; with Odorant receptor coreceptor
T3 sequence (Q9V8Y7 1-419): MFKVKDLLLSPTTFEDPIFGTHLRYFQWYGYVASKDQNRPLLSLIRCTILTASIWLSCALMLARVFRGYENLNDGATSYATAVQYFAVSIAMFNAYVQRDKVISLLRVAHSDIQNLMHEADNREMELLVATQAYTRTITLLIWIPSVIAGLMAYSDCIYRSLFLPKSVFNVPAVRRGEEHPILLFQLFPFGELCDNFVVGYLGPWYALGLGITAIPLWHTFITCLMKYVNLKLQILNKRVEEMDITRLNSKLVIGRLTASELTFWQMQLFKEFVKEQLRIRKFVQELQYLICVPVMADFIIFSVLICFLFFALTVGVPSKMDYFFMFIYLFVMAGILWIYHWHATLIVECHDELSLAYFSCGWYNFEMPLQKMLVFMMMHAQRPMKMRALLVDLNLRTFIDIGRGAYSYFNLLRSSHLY
T3 sequence (Q9VNB5 1-486 partner): T1 sequence (Q9VNB5 1-486 partner)

[4] = target: T4, Or92a (Drosophila melanogaster, UniProt Q9VDM1); conditions: activation, biphasic; polar GC column; n = 4
T4 construct: native receptor in situ in antennal olfactory sensory neurons of living flies; Or92a-Gal4 drives UAS-GCaMP6m reporter; with Odorant receptor coreceptor
T4 sequence (Q9VDM1 1-408): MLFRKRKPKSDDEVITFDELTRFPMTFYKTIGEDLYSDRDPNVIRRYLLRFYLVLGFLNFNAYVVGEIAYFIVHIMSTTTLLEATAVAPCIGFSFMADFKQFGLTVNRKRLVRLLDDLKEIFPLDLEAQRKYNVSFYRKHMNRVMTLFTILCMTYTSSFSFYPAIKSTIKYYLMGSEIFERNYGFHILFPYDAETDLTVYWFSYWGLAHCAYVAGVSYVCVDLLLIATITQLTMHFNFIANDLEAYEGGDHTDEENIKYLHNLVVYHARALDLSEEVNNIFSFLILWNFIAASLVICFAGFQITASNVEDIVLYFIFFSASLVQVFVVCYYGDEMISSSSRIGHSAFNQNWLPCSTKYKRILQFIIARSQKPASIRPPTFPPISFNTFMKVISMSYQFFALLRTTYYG
T4 sequence (Q9VNB5 1-486 partner): T1 sequence (Q9VNB5 1-486 partner)

[5] = target: T4, Or92a; conditions: activation, biphasic; polar GC column; n = 4; remark: listed apart in the source

Which “in vivo GCaMP6m calcium imaging of antennal neurons, GC-purified odorant” value (“in vivo GCaMP6m calcium imaging” below) [1] does the source give for `COC(=O)c1ccccc1` [MBZM, methyl benzoate] here?
The value was “good ligands were methyl benzoate and ethyl benzoate”.

For `CCCCCOC(C)=O` [PACE, pentyl acetate], which “in vivo GCaMP6m calcium imaging” value [2] is on record?
The value was “We found strong responses to pentyl acetate (significant to very low concentrations”.

`CC1CCCC2(C)CCCCC12O` (racemic) [2MNL, (±)-geosmin] was tested. Which “in vivo GCaMP6m calcium imaging” value [3] did it give?
Its value is “We found strong responses to geosmin and none to any of the other substances”.

How did the “in vivo GCaMP6m calcium imaging” value [4] turn out when `C[C@H](O)[C@@H](C)O` [MBDL, meso-2,3-Butanediol] was run?
Its value is “the meso isomer, identical to 2R,3S) gave a weak response only”.

How did the “in vivo GCaMP6m calcium imaging” value [1] turn out when `CCOC(=O)c1ccccc1` [2EBM, ethyl benzoate] was run?
Its value is “good ligands were methyl benzoate and ethyl benzoate”.

How did the calcium response [5] turn out when `C[C@@H](O)[C@@H](C)O` [RBDL, (2R,3R)-(−)-2,3-Butanediol] was run?
Its calcium response is ~ 15%.

Which “in vivo GCaMP6m calcium imaging” value [1] does the source give for `COC(=O)c1ccccc1O` [MSAM, methyl salicylate] here?
Its value is “The best ligand was methyl salicylate”.

Which calcium response [5] does the source give for `C[C@H](O)[C@H](C)O` [SBDL, (2S,3S)-(+)-2,3-Butanediol] here?
The calcium response was greater than 40%.
